This is an account of results in PMC9084241, “The structure and configuration changes of multifunctional peptide vectors enhance gene delivery efficiency” (RSC Advances, 2018).

Where a SMILES comes first, the peptide text is derived from it. [ ]: non-standard residue; d: D form. The star is where a group is joined. Stearoyl = CCCCCCCCCCCCCCCCCC(=O)*

The share remaining is what is left of the initial amount, in per cent.

This series is described as follows: Enzymatic hydrolysis stability. The format is in vitro ADME. The conditions noted are these: Tritirachium album (Parengyodontium album), peptide 8.0 mg/mL and proteinase K 2.0 mg/mL in PBS mixed 0.5 mL + 0.5 mL, 37 °C, HPLC peak area, mean n = 3. The protocol: Peptides and proteinase K were dissolved in PBS and then diluted to 8.0 mg mL^−1 and 2.0 mg mL^−1, respectively. For each peptide tested, 0.5 mL of peptide solution was mixed with 0.5 mL proteinase K solution and then incubated in a water bath at 37 °C. After 0, 5, 15, 30, 60, and 120 min, a 10 µL sample of the mixture was withdrawn and 30 µL of a precipitator solution (1.0 mL of TFA in 9.0 mL acetonitrile) was added. Each sample was subsequently vortexed for 5 s and centrifuged for 10 min at 4 °C. Supernatants were analyzed by HPLC, with the peak area of each peptide recorded and used to calculate hydrolysis efficiency.

With `CCCCCCCCCCCCCCCCCC(=O)N[C@@H](CS)C(=O)N[C@@H](CC(C)C)C(=O)N[C@@H](CC(C)C)C(=O)N[C@@H](CCCCN)C(=O)N[C@@H](CCCCN)C(=O)N[C@@H](CC(C)C)C(=O)N[C@@H](CC(C)C)C(=O)N[C@@H](CCCCN)C(=O)N[C@@H](CCCCN)C(=O)N[C@@H](CC(C)C)C(=O)N[C@@H](CC(C)C)C(=O)N[C@@H](CCCCN)C(=O)N[C@@H](CCCCN)C(=O)N[C@@H](CS)C(=O)N[C@@H](Cc1c[nH]cn1)C(=O)N[C@@H](Cc1c[nH]cn1)C(=O)N[C@@H](Cc1c[nH]cn1)C(=O)N[C@@H](Cc1c[nH]cn1)C(=O)N[C@@H](Cc1c[nH]cn1)C(=O)N[C@@H](Cc1c[nH]cn1)C(=O)N[C@@H](CCCNC(=N)N)C(=O)N[C@@H](CCCNC(=N)N)C(=O)N[C@@H](CCCNC(=N)N)C(=O)N[C@@H](CCCNC(=N)N)C(=O)N[C@@H](CCCNC(=N)N)C(=O)N[C@@H](CCCNC(=N)N)C(=O)N[C@@H](CCCNC(=N)N)C(=O)N[C@@H](CCCNC(=N)N)C(=O)N[C@@H](CCCNC(=N)N)C(N)=O` [P-03] (Stearoyl-CLLKKLLKKLLKKCHHHHHHRRRRRRRRR-NH2), the metabolised at 1 h, 4 mg/mL (within 60 min, read-out: peptide degraded by proteinase K) is 82%.

As for `CCCCCCCCCCCCCCCCCC(=O)N[C@H](CS)C(=O)N[C@H](CC(C)C)C(=O)N[C@H](CC(C)C)C(=O)N[C@H](CCCCN)C(=O)N[C@H](CCCCN)C(=O)N[C@H](CC(C)C)C(=O)N[C@H](CC(C)C)C(=O)N[C@H](CCCCN)C(=O)N[C@H](CCCCN)C(=O)N[C@H](CC(C)C)C(=O)N[C@H](CC(C)C)C(=O)N[C@H](CCCCN)C(=O)N[C@H](CCCCN)C(=O)N[C@H](CS)C(=O)N[C@H](Cc1c[nH]cn1)C(=O)N[C@H](Cc1c[nH]cn1)C(=O)N[C@H](Cc1c[nH]cn1)C(=O)N[C@H](Cc1c[nH]cn1)C(=O)N[C@H](Cc1c[nH]cn1)C(=O)N[C@H](Cc1c[nH]cn1)C(=O)N[C@H](CCCNC(=N)N)C(=O)N[C@H](CCCNC(=N)N)C(=O)N[C@H](CCCNC(=N)N)C(=O)N[C@H](CCCNC(=N)N)C(=O)N[C@H](CCCNC(=N)N)C(=O)N[C@H](CCCNC(=N)N)C(=O)N[C@H](CCCNC(=N)N)C(=O)N[C@H](CCCNC(=N)N)C(=O)N[C@H](CCCNC(=N)N)C(N)=O` [P-04] (Stearoyl-[dC][dL][dL][dK][dK][dL][dL][dK][dK][dL][dL][dK][dK][dC][dH][dH][dH][dH][dH][dH][dR][dR][dR][dR][dR][dR][dR][dR][dR]-NH2), where the note is “60 min, read-out: peptide remaining after incubation with proteinase K”, the fraction remaining at 1 h, 4 mg/mL was 70%.
